Source: patent US9445987B2, “Ceramide production enhancer and moisturizer” (Kao Corporation, priority 2009, dated 2016)

Test system: Normal human epidermal keratinocytes (NHEK(F))
Assay: Verification of ceramide production enhancing effect (Test Example 2 and Reference Example)
Format: cell-based
Experimental: Normal human epidermal keratinocytes (trade name: NHEK(F), manufactured by Kurabo Industries, Ltd.) were cultured under the conditions of 37° C. and 5% CO2, in a culture fluid (trade name: EpiLife-KG2, manufactured by Kurabo Industries, Ltd.) using a culture plate.
Thereafter, the culture fluid was exchanged with EpiLife-KG2 from which growth factors such as epidermal growth factor had been eliminated, and a solution in which concentration of toosendanin was adjusted to 1 mM (574 ppm), or a control solution (50% ethanol) was added to the culture fluid in an amount of 0.01%.
The cells were cultured for 3 days, and then the respective cells were collected from each well.
An organic phase obtained by extracting lipids from the collected cells by the Blight and Dyer method, was transferred into a glass tube, and was dried to solid in nitrogen stream. Subsequently, the dried product was redissolved in chloroform and methanol, and this was used as a lipid sample.
Further, 0.1N NaOH and a 1% aqueous SDS solution were added to the cells from which lipids had been extracted, and the mixture was heated at 60° C. for 2 hours to thereby solubilize proteins. The mixture was cooled to room temperature, and then 2N HCl was added for neutralization. The amount of proteins was quantified by the BCA method. […]

`CC(=O)O[C@@H]1C[C@H](O)[C@@]23CO[C@@H](O)[C@]1(C)[C@@H]2C[C@@H](O)[C@]1(C)[C@@H]3C(=O)[C@H](OC(C)=O)[C@@]2(C)[C@H](c3ccoc3)C[C@H]3O[C@]321` [Toosendanin, toosendanin] was tested, and the “Amount of ceramide production (Amount of ceramide production of control solution-added group = 1)” value (concentration for verification 57.4 ppb, cells cultured 3 days, TLC detection, control 50% ethanol) was 1.22 and the “amount of ceramide production as compared to the control system (in words)” value (toosendanin-added system, 57.4 ppb, Table 2) was “an increase in the amount of ceramide production was recognized”.
